From patent US10040791B2, “Isoxazole derivative as mutant isocitrate dehydrogenase 1 inhibitor” (Daiichi Sankyo Company, Limited, priority 2014, dated 2018)

Assays:
IDH1R132C = IDH1R132C (Homo sapiens (Human), UniProt O75874, R132C); experiment: Inhibitory activity against IDH1R132C enzyme (NADPH detection, WST-8); format: biochemical; settings: 10 nM, residual NADPH detected with WST-8, read-out: Test Example 1 IDH1 R132C IC50
[1] = test system: HT1080 xenografted mice (IDH1R132C); experiment: 2-HG production inhibitory activity using HT1080 xenografted mice; format: in vivo, mouse; settings: Mus musculus, HT-1080, po, 6 h, 2-HG production, HT1080 xenografted mice; read-out: Test Example 5 Ratio (%)
Procedure, shortened: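 Mice bearing HT1080 tumors received 75 mg/kg compound by oral gavage twice a day, three doses in total, at 10 mL/kg; vehicle-dosed mice were negative controls. Tumors were collected 6 h after the final dose, frozen, homogenized in methanol and centrifuged, and 2-HG was measured in the extracts.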

[2] = test system: HT-1080 cells expressing IDH1R132C; experiment: 2-HG production inhibitory activity using HT1080 cell; format: cell-based, human; settings: Homo sapiens, HT-1080; 2-HG production, HT1080 cells; read-out: Test Example 3 IC50
Experimental: Then, 100 μL of growth medium B was added to each well, further 25 μL of a solution of each compound diluted to a predetermined concentration with growth medium B was added to each well, and the cells were incubated at 37° C. for 2 days under 5% CO2. […] Then, 150 μL of ultrapure water was further added to each well, and the mixture was stirred by pipetting and stored at −20° C.
The preserved solutions were thawed at room temperature.

IDH1R132C, sequence (O75874 whole entry R132C): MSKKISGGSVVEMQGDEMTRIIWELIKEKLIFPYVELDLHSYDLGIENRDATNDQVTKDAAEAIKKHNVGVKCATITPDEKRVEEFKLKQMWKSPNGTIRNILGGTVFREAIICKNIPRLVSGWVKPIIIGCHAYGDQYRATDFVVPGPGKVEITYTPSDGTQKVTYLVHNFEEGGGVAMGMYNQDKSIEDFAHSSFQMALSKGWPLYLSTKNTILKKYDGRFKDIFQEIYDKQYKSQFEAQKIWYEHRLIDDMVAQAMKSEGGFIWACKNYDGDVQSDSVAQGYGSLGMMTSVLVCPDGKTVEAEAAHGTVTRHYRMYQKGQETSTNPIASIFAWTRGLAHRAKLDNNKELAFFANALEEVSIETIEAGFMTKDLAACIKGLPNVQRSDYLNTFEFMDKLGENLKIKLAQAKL

| IC50 (IDH1R132C) [nM] | IC50 [2] [nM] | Structure (SMILES) | response vs control in vivo at 75 mg/kg [1] [%] |
| --- | --- | --- | --- |
| 179 | 50 | Cc1cn(C(=O)c2c(-c3c(Cl)cc(Cl)cc3Cl)noc2C2(C)CCC2)c2cccc(/C=C/C(=O)O)c12 [Example 10, (2E)-3-(3-Methyl-1-{[5-(1-methylcyclobutyl)-3-(2,4,6-trichlorophenyl)-1,2-oxazol-4-yl]carbonyl}-1H-indol-4-yl)prop-2-enoic acid] | 27 |
| 104 | 173 | Cc1cn(C(=O)c2c(-c3c(Cl)cc(Cl)cc3Cl)noc2C(C)(C)F)c2c(F)ccc(/C=C/C(=O)O)c12 [Example 50, (2E)-3-(7-Fluoro-1-{[5-(2-fluoropropan-2-yl)-3-(2,4,6-trichlorophenyl)-1,2-oxazol-4-yl]carbonyl}-3-methyl-1H-indol-4-yl)prop-2-enoic acid] | 84 |
| 145 | 193 | Cc1cn(C(=O)c2c(-c3cc(F)c(Cl)cc3Cl)noc2C(C)(C)F)c2cccc(/C=C/C(=O)O)c12 [Example 63, (2E)-3-(1-{[3-(2,4-Dichloro-5-fluorophenyl)-5-(2-fluoropropan-2-yl)-1,2-oxazol-4-yl]carbonyl}-3-methyl-1H-indol-4-yl)prop-2-enoic acid] | 31 |
| 256 | 265 | C=CC(=O)N1CCN(c2onc(-c3c(F)cccc3Cl)c2C(=O)n2ccc3c(/C=C/C(=O)O)cccc32)C(C)(C)C1 [Example 157, (2E)-3-(1-{[5-(4-Acryloyl-2,2-dimethylpiperazin-1-yl)-3-(2-chloro-6-fluorophenyl)-1,2-oxazol-4-yl]carbonyl}-1H-indol-4-yl)prop-2-enoic acid] | 89 |
| 149 | 23 | C=CC(=O)N1CCC(c2onc(-c3ccc(Cl)cc3Cl)c2C(=O)n2cc(C)c3c(/C=C/C(=O)O)cccc32)CC1 [Example 106] | 12 |
| 190 | 30 | C/C=C/C(=O)N1CCC(c2onc(-c3c(Cl)cc(Cl)cc3Cl)c2C(=O)n2cc(C)c3c(/C=C/C(=O)O)cccc32)CC1 [Example 119] | 12 |
| 122 | 59 | CC(C)(F)c1onc(-c2c(Cl)cc(Cl)cc2Cl)c1C(=O)n1cc(Cl)c2c(/C=C/C(=O)O)cccc21 [Example 66, (2E)-3-(3-Chloro-1-{[5-(2-fluoropropan-2-yl)-3-(2,4,6-trichlorophenyl)-1,2-oxazol-4-yl]carbonyl}-1H-indol-4-yl)prop-2-enoic acid] | 49 |
| 125 | 32 | Cc1cn(C(=O)c2c(-c3c(Cl)cc(Br)cc3Cl)noc2C(C)(C)F)c2cccc(/C=C/C(=O)O)c12 [Example 68, (2E)-3-(1-{[3-(4-Bromo-2,6-dichlorophenyl)-5-(2-fluoropropan-2-yl)-1,2-oxazol-4-yl]carbonyl}-3-methyl-1H-indol-4-yl)prop-2-enoic acid] | 47 |
| 234 | 200 | Cc1cc(Cl)c(-c2noc(C(C)(C)C)c2C(=O)n2ccc3c(/C=C/C(=O)O)cccc32)c(Cl)c1 [Example 38, (2E)-3-(1-{[5-(tert-Butyl)-3-(2,6-dichloro-4-methylphenyl)-1,2-oxazol-4-yl]carbonyl}-1H-indol-4-yl)prop-2-enoic acid] | 61 |
| 201 | 59 | CC(C)(C)c1onc(-c2c(Cl)cc(Cl)cc2Cl)c1C(=O)n1cc(C(F)F)c2c(/C=C/C(=O)O)cccc21 [Example 72, (2E)-3-(1-{[5-(tert-Butyl)-3-(2,4,6-trichlorophenyl)-1,2-oxazol-4-yl]carbonyl}-3-(difluoromethyl)-1H-indol-4-yl)prop-2-enoic acid] | 46 |
| 193 | 43 | Cc1cn(C(=O)c2c(-c3c(Cl)cc(Cl)cc3Cl)noc2C(C)(C)C)c2cccc(/C=C/C(=O)O)c12 [Example 33, (2E)-3-(1-{[5-(tert-Butyl)-3-(2,4,6-trichlorophenyl)-1,2-oxazol-4-yl]carbonyl}-3-methyl-1H-indol-4-yl)prop-2-enoic acid] | 15 |
| 98 | 26 | COC1(c2onc(-c3c(Cl)cc(Cl)cc3Cl)c2C(=O)n2cc(C)c3c(/C=C/C(=O)O)cccc32)CC1 [Example 57, (2E)-3-(1-{[5-(1-Methoxycyclopropyl)-3-(2,4,6-trichlorophenyl)-1,2-oxazol-4-yl]carbonyl}-3-methyl-1H-indol-4-yl)prop-2-enoic acid] | 12 |
| 144 | 104 | C=CC(=O)N1CCN(c2onc(-c3c(Cl)cc(Cl)cc3Cl)c2C(=O)n2ccc3c(/C=C/C(=O)O)cccc32)C(C)C1 (stereo in doubt) [Example 146, (2E)-3-[1-({5-[(2R)-4-Acryloyl-2-methylpiperazin-1-yl]-3-(2,4,6-trichlorophenyl)-1,2-oxazol-4-yl}carbonyl)-1H-indol-4-yl]prop-2-enoic acid] | 38 |
| 56 | 27 | COC1(c2onc(-c3c(Cl)cc(Cl)cc3Cl)c2C(=O)n2cc(C)c3c(/C=C/C(=O)O)cccc32)COC1 [Example 4, (2E)-3-(1-{[5-(3-Methoxyoxetan-3-yl)-3-(2,4,6-trichlorophenyl)-1,2-oxazol-4-yl]carbonyl}-3-methyl-1H-indol-4-yl)prop-2-enoic acid] | 15 |
| 98 | 45 | C=CC(=O)N1CC2(CC2)N(c2onc(-c3c(Cl)cccc3Cl)c2C(=O)n2ccc3c(/C=C/C(=O)O)cccc32)C[C@H]1CC [Example 163, (2E)-3-[1-({5-[(6R)7-Acryloyl-6-ethyl-4,7-diazaspiro[2.5]oct-4-yl]-3-(2,6-dichlorophenyl)-1,2-oxazol-4-yl}carbonyl)-1H-indol-4-yl]prop-2-enoic acid] | 33 |
